# Measurements reported in PMC6956804, “Potent antibacterial activity of MSI-1 derived from the magainin 2 peptide against drug-resistant bacteria” (Theranostics, 2020).
# Counter-ions that a name gives are not always drawn. Like-named read-outs stand apart in the source and are kept apart here. Peptide text beside a SMILES is read from it.
# Columns and labels:
# [1] = system: E. cloacae S1 (AmpC (+)); assay: microbe, parasite or virus in culture; assay type: cell-based
# Experimental: (§1) Bacterial strains were purchased from the American Type Culture Collection (ATCC). All clinical strains were isolated from human clinical specimens by the Medical Laboratory Center of Zhongda Hospital (Nanjing, Jiangsu, China). Ndm-1, tem-1, ctx-m-1, shv-1 -carrying bacteria were constructed as previously described. The recombinant bacteria carrying drug-resistant genes were prepared in LB nutrient and induced by IPTG (1 mM) for 4 h before text. Other bacterial strains were respectively prepared in MHB and Columbia Blood Agar Base.
# (§2) A standard micro-broth serial dilution assay was used to measure MIC of peptides. MIC was obtained by a microplate reader at 600 nm. MBC was determined as previously described.
# [2] = system: E. cloacae S3 (AmpC (+)); assay: microbe, parasite or virus in culture; assay type: cell-based
# Experimental: as §1, §2
# [3] = system: E. coli A2 (ESBLs (+)); assay: microbe, parasite or virus in culture; assay type: cell-based
# Experimental: as §1, §2
# [4] = system: E. coli A5 (ESBLs (+)); assay: microbe, parasite or virus in culture; assay type: cell-based
# Experimental: as §1, §2
# [5] = system: E. coli A9 (ESBLs (+)); assay: microbe, parasite or virus in culture; assay type: cell-based
# Experimental: as §1, §2
# [6] = system: E. coli ATCC25922; assay: microbe, parasite or virus in culture; assay type: cell-based; conditions: micro-broth serial dilution, 600 nm
# Experimental: as §1, §2
# [7] = system: E. faecalis; assay: microbe, parasite or virus in culture; assay type: cell-based
# Experimental: as §1, §2
# [8] = system: E. faecium; assay: microbe, parasite or virus in culture; assay type: cell-based
# Experimental: as §1, §2
# [9] = system: P. aeruginosa ATCC27853; assay: microbe, parasite or virus in culture; assay type: cell-based
# Experimental: as §1, §2
# [10] = system: P. aeruginosa T1 (ESBLs (+)); assay: microbe, parasite or virus in culture; assay type: cell-based
# Experimental: as §1, §2
# [11] = system: P. aeruginosa T6 (ESBLs (+)); assay: microbe, parasite or virus in culture; assay type: cell-based
# Experimental: as §1, §2
# [12] = system: P. aeruginosa T8 (ESBLs (+)); assay: microbe, parasite or virus in culture; assay type: cell-based
# Experimental: as §1, §2
# [13] = system: S. aureus ATCC25923; assay: microbe, parasite or virus in culture; assay type: cell-based
# Experimental: as §1, §2
# [14] = system: S. epidermidis ATCC35984; assay: microbe, parasite or virus in culture; assay type: cell-based
# Experimental: as §1, §2
# [15] = system: S. pneumoniae ATCC 49619; assay: microbe, parasite or virus in culture; assay type: cell-based
# Experimental: as §1, §2
# [16] = system: Shigella flexneri; assay: microbe, parasite or virus in culture; assay type: cell-based
# Experimental: as §1, §2
# [17] = system: K. peneumoniae ATCC4352; assay: organism not typed; assay type: cell-based
# Experimental: as §1, §2
# [18] = system: K. peneumoniae B4 (ESBLs (+)); assay: organism not typed; assay type: cell-based
# Experimental: as §1, §2
# [19] = system: K. peneumoniae B6 (ESBLs (+)); assay: organism not typed; assay type: cell-based
# Experimental: as §1, §2
# [20] = system: K. peneumoniae B9 (ESBLs (+)); assay: organism not typed; assay type: cell-based
# Experimental: as §1, §2
# [21] = system: MRSA M101; assay: microbe, parasite or virus in culture; assay type: cell-based, Staphylococcus aureus
# Experimental: as §1, §2
# [22] = system: MRSA M108; assay: microbe, parasite or virus in culture; assay type: cell-based, Staphylococcus aureus
# Experimental: as §1, §2
# [23] = system: MSSA D1; assay: microbe, parasite or virus in culture; assay type: cell-based, Staphylococcus aureus; conditions: MSSA D1, clinical strain
# Experimental: as §1, §2
# [24] = system: MSSA D4; assay: microbe, parasite or virus in culture; assay type: cell-based, Staphylococcus aureus; conditions: MSSA D4, clinical strain
# Experimental: as §1, §2
# [25] = system: MRSE N104; assay: microbe, parasite or virus in culture; assay type: cell-based, Staphylococcus epidermidis
# Experimental: as §1, §2
# [26] = system: MRSE N109; assay: microbe, parasite or virus in culture; assay type: cell-based, Staphylococcus epidermidis
# Experimental: as §1, §2
# [27] = system: MSSE E3; assay: microbe, parasite or virus in culture; assay type: cell-based, Staphylococcus epidermidis; conditions: MSSE E3, clinical strain
# Experimental: as §1, §2
# [28] = system: MSSE E8; assay: microbe, parasite or virus in culture; assay type: cell-based, Staphylococcus epidermidis; conditions: MSSE E8, clinical strain
# Experimental: as §1, §2
# [29] = system: PISP F22; assay: microbe, parasite or virus in culture; assay type: cell-based, Streptococcus pneumoniae; conditions: PISP F22, clinical strain
# Experimental: as §1, §2
# [30] = system: PISP F34; assay: microbe, parasite or virus in culture; assay type: cell-based, Streptococcus pneumoniae; conditions: PISP F34, clinical strain
# Experimental: as §1, §2
# [31] = system: PRSP P105; assay: microbe, parasite or virus in culture; assay type: cell-based, Streptococcus pneumoniae
# Experimental: as §1, §2
# [32] = system: PRSP P112; assay: microbe, parasite or virus in culture; assay type: cell-based, Streptococcus pneumoniae
# Experimental: as §1, §2
# [33] = system: penicillin resistant-E. coli isolates; assay: Acute systemic E. coli infection in mice; assay type: in vivo, BALB/c mice; conditions: 7 days; polymyxin 5 mg/kg
# Experimental: BALB/c mice (5-6 weeks) were purchased from the Laboratory Animal Center of Yangzhou University (Yangzhou, Jiangsu, China) and intraperitoneally (ip) injected with 500 μl (5× 10^8 CFU/ml) of penicillin resistant-E. coli isolates. Mice in MSI-1 treated groups (10, 5 and 2.5 mg/kg, n=16/group) and polymyxin treated group (5 mg/kg) were administered after 2 h post bacterial inoculation. After 12 h, six mice in each group were anesthetized with pentobarbital sodium (50 mg/kg body weight, i.p) and euthanized by cervical dislocation to count bacterial colonies in blood, lung, spleen, kidney and liver. Lung homogenates were collected for Gram staining. Moreover, serum TNF-α and IL-6 were measured by ELISA kits. The procedure of H&E staining for mouse lung was adapted from a published report. The survival and weight of other mice were monitored daily up to 7 days.
# [34] = system: Penicillin-resistant E. coli; assay: Local E. coli infection in scalded mouse model; assay type: in vivo, mice; conditions: 7th day; MSI-1 5 and 10 mg/kg, polymyxin B; p<0.01 vs the model group
# Experimental: To further investigate whether MSI-1 could protect from bacterial infection of the skin, mice were anesthetized with pentobarbital sodium (50 mg/kg, i.p) and shaved on the dorsal surfaces. The depilated skin was secured with 2-cm-diameter plastic containers that filled up with boiling water at contact time 10 s. Afterwards, a full-thickness wound (2 cm in diameter) was cut on the burned skin of each mouse. Penicillin-resistant E. coli suspension (100 µl, 1× 10^10 CFU/ml) was slowly inoculated over wound with a pipette tip, and a gentle stream of air was aimed over the inoculation site until skin appeared wet but absent of any standing volume from the inoculum suspension. Two hours later, vehicle (3% CMC-Na), MSI-1 or polymyxin, which was suspended in sterile CMC-Na (3%) in PBS at concentration of 10, 5, 2.5 mg/ml (MSI-1) or 5 mg/ml (polymyxin), was inoculated on the same area with a pipette tip, 1 ml/kg, once a day (n=15 per group). Mice were fed in cages individually to avoid cross infection and were treated daily for 7 consecutive days. At 3rd and 7th days, cutaneous wound healing and bacteria counts in skin lesion were measured. Moreover, 12 h after the last treatment, blood samples were collected from the retro-orbital venous plexus under anesthesia (pentobarbital sodium, 50 mg/kg). Finally, all animals were euthanized by cervical dislocation to collect the lung samples for counting live bacteria. The contents of TNF-α and IL-6 in skin homogenates and serum were measured by ELISA. Skin lesion was fixed by 4% paraformaldehyde for H&E staining. The expression levels of EGF and VEGF in skin lesion were examined by immunohistochemistry. In addition, the wound scratch assay was also performed on HaCaT cells to further test whether MSI-1 improved wound healing by promoting keratinocyte migration.
# [35] = Staphylococcus aureus, read-out: MIC
# [36] = Staphylococcus epidermidis, read-out: MIC
# [37] = Staphylococcus epidermidis, MRSE
# [38] = Streptococcus pneumoniae, read-out: MIC
compound,measurement,setting,value
"CC[C@H](C)[C@H](NC(=O)CN)C(=O)NCC(=O)N[C@@H](CCCCN)C(=O)N[C@@H](Cc1ccccc1)C(=O)N[C@@H](CC(C)C)C(=O)N[C@@H](CCCCN)C(=O)N[C@@H](CCCCN)C(=O)N[C@@H](C)C(=O)N[C@@H](CCCCN)C(=O)N[C@@H](CCCCN)C(=O)N[C@@H](Cc1ccccc1)C(=O)NCC(=O)N[C@@H](CCCCN)C(=O)N[C@@H](C)C(=O)N[C@@H](Cc1ccccc1)C(=O)N[C@H](C(=O)N[C@@H](CCCCN)C(=O)N[C@H](C(=O)N[C@@H](CC(C)C)C(=O)N[C@@H](CCCCN)C(=O)N[C@@H](CCCCN)C(N)=O)[C@@H](C)CC)C(C)C [MSI-78, pexiganan] (H-GIGKFLKKAKKFGKAFVKILKK-NH2)",MIC,"[1]; E. cloacae S1 (AmpC (+)), clinical strain",16 µg/mL
same,MIC,"[2]; E. cloacae S3 (AmpC (+)), clinical strain",16 µg/mL
same,MIC,"[3]; E. coli A2 (ESBLs (+)), clinical strain",8 µg/mL
same,MIC,"[4]; E. coli A5 (ESBLs (+)), clinical strain",16 µg/mL
same,MIC,"[5]; E. coli A9 (ESBLs (+)), clinical strain",16 µg/mL
same,MIC,[6],16 µg/mL
same,MIC,[7],16 µg/mL
same,MIC,[8],8 µg/mL
same,MIC,[9],16 µg/mL
same,MIC,"[10]; P. aeruginosa T1 (ESBLs (+)), clinical strain",32 µg/mL
same,MIC,"[11]; P. aeruginosa T6 (ESBLs (+)), clinical strain",16 µg/mL
same,MIC,"[12]; P. aeruginosa T8 (ESBLs (+)), clinical strain",16 µg/mL
same,MIC,[13],16 µg/mL
same,MIC,[14],16 µg/mL
same,MIC,[15],16 µg/mL
same,MIC,[16],32 µg/mL
same,MIC,[17],8 µg/mL
same,MIC,"[18]; K. peneumoniae B4 (ESBLs (+)), clinical strain",16 µg/mL
same,MIC,"[19]; K. peneumoniae B6 (ESBLs (+)), clinical strain",16 µg/mL
same,MIC,"[20]; K. peneumoniae B9 (ESBLs (+)), clinical strain",32 µg/mL
same,MIC,"[21]; MRSA M101, clinical strain",32 µg/mL
same,MIC,"[22]; MRSA M108, clinical strain",16 µg/mL
same,MIC,[23],16 µg/mL
same,MIC,[24],32 µg/mL
same,MIC,"[25]; MRSE N104, clinical strain",32 µg/mL
same,MIC,"[26]; MRSE N109, clinical strain",16 µg/mL
same,MIC,[27],32 µg/mL
same,MIC,[28],16 µg/mL
same,MIC,[29],16 µg/mL
same,MIC,[30],32 µg/mL
same,MIC,"[31]; PRSP P105, clinical strain",16 µg/mL
same,MIC,"[32]; PRSP P112, clinical strain",32 µg/mL
"CC1(C)S[C@@H]2[C@H](NC(=O)Cc3ccccc3)C(=O)N2[C@H]1C(=O)O [Penicillin, Penicillin G sodium salt]",MIC,[1]; Enterobacter cloacae,> 256 µg/mL
same,MIC,[2]; Enterobacter cloacae,> 256 µg/mL
same,MIC,[3]; Escherichia coli,> 256 µg/mL
same,MIC,[4]; Escherichia coli,> 256 µg/mL
same,MIC,[5]; Escherichia coli,> 256 µg/mL
same,MIC,"[6]; Escherichia coli, read-out: MIC",0.25 µg/mL
same,MIC,"[7]; Enterococcus faecalis, read-out: MIC",> 256 µg/mL
same,MIC,"[8]; Enterococcus faecium, read-out: MIC",> 256 µg/mL
same,MIC,"[9]; Pseudomonas aeruginosa, read-out: MIC",0.5 µg/mL
same,MIC,[10]; Pseudomonas aeruginosa,> 256 µg/mL
same,MIC,[11]; Pseudomonas aeruginosa,> 256 µg/mL
same,MIC,[12]; Pseudomonas aeruginosa,> 256 µg/mL
same,MIC,[13]; [35],0.125 µg/mL
same,MIC,[14]; [36],0.5 µg/mL
same,MIC,"[15]; Streptococcus pneumoniae, ATCC49619, read-out: MIC",0.25 µg/mL
same,MIC,[16],> 256 µg/mL
same,MIC,[17]; read-out: MIC,1 µg/mL
same,MIC,[18],> 256 µg/mL
same,MIC,[19],> 256 µg/mL
same,MIC,[20],> 256 µg/mL
same,MIC,"[21]; Staphylococcus aureus, MRSA",> 256 µg/mL
same,MIC,"[22]; Staphylococcus aureus, MRSA",> 256 µg/mL
same,MIC,[23]; [35],0.5 µg/mL
same,MIC,[24]; [35],0.125 µg/mL
same,MIC,[25]; [37],> 256 µg/mL
same,MIC,[26]; [37],> 256 µg/mL
same,MIC,[27]; [36],2 µg/mL
same,MIC,[28]; [36],1 µg/mL
same,MIC,[29]; [38],1 µg/mL
same,MIC,[30]; [38],0.5 µg/mL
same,MIC,"[31]; Streptococcus pneumoniae, PRSP",> 256 µg/mL
same,MIC,"[32]; Streptococcus pneumoniae, PRSP",> 256 µg/mL
Polymyxin B,body weight,[33],marked weight maintenance effect
same,bacterial colonies in the lung and blood,[34],obviously decreased
